Measurements: patent US20230339970A1, “CASEIN KINASE 1 DELTA MODULATORS” (priority 2020, published 2023)

What was measured:
human CSNK1D = target: T1, human CSNK1D (Homo sapiens, UniProt P48730); test: Whole Cell nBRET CSNK1D Binding Assay; details: living CHO cells stably expressing human CSNK1D tagged with nanoluciferase; NanoBret tracer 130 nM; 2 hours at 37 C
T1 construct: expressed in transfected cells

[1] = target: T2, human recombinant GST cleaved CSNK1D (Homo sapiens, UniProt P48730); test: Purified Enzyme Assay (ADP-Glo CSNK1D Kinase Assay); format: biochemical; details: 2 nM CSNK1D; peptide substrate 150 μM; ATP 20 μM; 45 minutes at room temperature
T2 construct: GST (cleaved yes); purchased University of Dundee clone DU 19064
T2 sequence (P48730 whole entry): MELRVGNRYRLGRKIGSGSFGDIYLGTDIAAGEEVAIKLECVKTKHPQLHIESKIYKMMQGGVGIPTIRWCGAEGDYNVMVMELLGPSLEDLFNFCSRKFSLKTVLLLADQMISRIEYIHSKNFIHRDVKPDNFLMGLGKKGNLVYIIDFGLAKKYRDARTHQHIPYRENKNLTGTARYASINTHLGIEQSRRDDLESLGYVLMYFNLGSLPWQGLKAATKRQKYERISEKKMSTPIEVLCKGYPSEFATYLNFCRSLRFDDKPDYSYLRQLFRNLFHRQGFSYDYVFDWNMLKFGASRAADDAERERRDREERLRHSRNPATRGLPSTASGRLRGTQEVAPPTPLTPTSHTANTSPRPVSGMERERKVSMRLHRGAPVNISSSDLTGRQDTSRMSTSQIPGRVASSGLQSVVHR
Outline: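 Percent activity derived from ADP-Glo quantification of ADP produced. Reactions: compound dose-response with human recombinant GST-cleaved CSNK1D, ATP and substrate peptide PLSRTL-pS-VASLPGL, incubated 45 min at room temperature.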

T1 sequence (P48730 whole entry): as above

SMILES	IC50 (human CSNK1D)	IC50 [1]
Cc1n[nH]c2nccc(-c3c(-c4ccc(F)cc4)nn4c3COC(C(F)(F)F)C4)c12 (single isomer, unassigned) [Example 372, (*S)-2-(4-Fluorophenyl)-3-(3-methyl-1H-pyrazolo[3,4-b]pyridin-4-yl)-6-(trifluoromethyl)-6,7-dihydro-4H-pyrazolo[5,1-c][1,4]oxazine]	0.724 µM	0.042 µM
Cc1n[nH]c2nccc(-c3c(-c4ccc(F)cc4)nn4c3COC(C(F)(F)F)C4)c12 (single isomer, unassigned) [Example 373, (*R)-2-(4-Fluorophenyl)-3-(3-methyl-1H-pyrazolo[3,4-b]pyridin-4-yl)-6-(trifluoromethyl)-6,7-dihydro-4H-pyrazolo[5,1-c][1,4]oxazine]	> 10 µM	0.306 µM
Cc1n[nH]c2nc(C(F)F)cc(-c3c(-c4ccc(F)cc4)nn4c3COC(C(F)(F)F)C4)c12 (single isomer, unassigned) [Example 374, (*S)-3-[6-(Difluoromethyl)-3-methyl-1H-pyrazolo[3,4-b]pyridin-4-yl]-2-(4-fluorophenyl)-6-(trifluoromethyl)-6,7-dihydro-4H-pyrazolo[5,1-c][1,4]oxazine]	> 10 µM	0.293 µM
Cc1n[nH]c2nc(C(F)F)cc(-c3c(-c4ccc(F)cc4)nn4c3COC(C(F)(F)F)C4)c12 (single isomer, unassigned) [Example 375, (*R)-3-[6-(Difluoromethyl)-3-methyl-1H-pyrazolo[3,4-b]pyridin-4-yl]-2-(4-fluorophenyl)-6-(trifluoromethyl)-6,7-dihydro-4H-pyrazolo[5,1-c][1,4]oxazine]	0.109 µM	0.065 µM
Cc1nc(-c2c(-c3ccc(F)cc3)nn3c2COC(C(F)(F)F)C3)c2cn[nH]c2n1 (single isomer, unassigned) [Example 376, (*R)-2-(4-Fluorophenyl)-3-(6-methyl-1H-pyrazolo[3,4-d]pyrimidin-4-yl)-6-(trifluoromethyl)-6,7-dihydro-4H-pyrazolo[5,1-c][1,4]oxazine]	0.074 µM	0.004 µM
Cc1nc(-c2c(-c3ccc(F)cc3)nn3c2COC(C(F)(F)F)C3)c2cn[nH]c2n1 (single isomer, unassigned) [Example 377, (*S)-2-(4-Fluorophenyl)-3-(6-methyl-1H-pyrazolo[3,4-d]pyrimidin-4-yl)-6-(trifluoromethyl)-6,7-dihydro-4H-pyrazolo[5,1-c][1,4]oxazine]	2.48 µM	0.046 µM
C[C@]1(C(F)(F)F)Cn2nc(-c3ccc(F)cc3)c(-c3ccn4nccc4c3)c2CO1 (single isomer, unassigned) [Example 412, (*R)-2-(4-Fluorophenyl)-6-methyl-3-(pyrazolo[1,5-a]pyridin-5-yl)-6-(trifluoromethyl)-6,7-dihydro-4H-pyrazolo[5,1-c][1,4]oxazine]	0.694 µM	0.149 µM
CC1(C(F)(F)F)Cn2nc(-c3ccc(F)cc3)c(-c3ccn4nccc4c3)c2CO1 (single isomer, unassigned) [Example 413, (*S)-2-(4-Fluorophenyl)-6-methyl-3-(pyrazolo[1,5-a]pyridin-5-yl)-6-(trifluoromethyl)-6,7-dihydro-4H-pyrazolo[5,1-c][1,4]oxazine]	0.075 µM	0.027 µM
C[C@]1(C(F)(F)F)Cn2nc(-c3ccc(F)cn3)c(-c3ccn4nccc4c3)c2CO1 (single isomer, unassigned) [Example 414, (*R)-2-(5-Fluoropyridin-2-yl)-6-methyl-3-(pyrazolo[1,5-a]pyridin-5-yl)-6-(trifluoromethyl)-6,7-dihydro-4H-pyrazolo[5,1-c][1,4]oxazine]	0.33 µM	0.008 µM
C[C@@]1(C(F)(F)F)Cn2nc(-c3ccc(F)cn3)c(-c3ccn4nccc4c3)c2CO1 (single isomer, unassigned) [Example 415, (*S)-2-(5-Fluoropyridin-2-yl)-6-methyl-3-(pyrazolo[1,5-a]pyridin-5-yl)-6-(trifluoromethyl)-6,7-dihydro-4H-pyrazolo[5,1-c][1,4]oxazine]	3.89 µM	0.264 µM
CC1(C(F)(F)F)Cn2nc(-c3ccc(F)cc3)c(-c3ccnc4[nH]ncc34)c2CO1 (single isomer, unassigned) [Example 416, (*R)-2-(4-Fluorophenyl)-6-methyl-3-(1H-pyrazolo[3,4-b]pyridin-4-yl)-6-(trifluoromethyl)-6,7-dihydro-4H-pyrazolo[5,1-c][1,4]oxazine]	0.118 µM	0.017 µM
CC1(C(F)(F)F)Cn2nc(-c3ccc(F)cc3)c(-c3ccnc4[nH]ncc34)c2CO1 (single isomer, unassigned) [Example 417, (*)-2-(4-Fluorophenyl)-6-methyl-3-(1H-pyrazolo[3,4-b]pyridin-4-yl)-6-(trifluoromethyl)-6,7-dihydro-4H-pyrazolo[5,1-c][1,4]oxazine]	0.003 µM	0.001 µM
Cc1n[nH]c2nccc(-c3c(-c4ccc(F)cn4)nn4c3CO[C@@](C)(C(F)(F)F)C4)c12 (single isomer, unassigned) [Example 418, (*R)-2-(5-Fluoropyridin-2-yl)-6-methyl-3-(3-methyl-1H-pyrazolo[3,4-b]pyridin-4-yl)-6-(trifluoromethyl)-6,7-dihydro-4H-pyrazolo[5,1-c][1,4]oxazine]	0.124 µM	0.016 µM
Cc1n[nH]c2nccc(-c3c(-c4ccc(F)cn4)nn4c3COC(C)(C(F)(F)F)C4)c12 (single isomer, unassigned) [Example 419, (*S)-2-(5-Fluoropyridin-2-yl)-6-methyl-3-(3-methyl-1H-pyrazolo[3,4-b]pyridin-4-yl)-6-(trifluoromethyl)-6,7-dihydro-4H-pyrazolo[5,1-c][1,4]oxazine]	> 10 µM	0.235 µM
Cc1nc2[nH]ncc2c(-c2c(-c3ccc(F)cn3)nn3c2CO[C@@](C)(C(F)(F)F)C3)c1F (single isomer, unassigned) [Example 420, (*R)-3-(5-Fluoro-6-methyl-1H-pyrazolo[3,4-b]pyridin-4-yl)-2-(5-fluoropyridin-2-yl)-6-methyl-6-(trifluoromethyl)-6,7-dihydro-4H-pyrazolo[5,1-c][1,4]oxazine]	0.024 µM	0.003 µM
Cc1nc2[nH]ncc2c(-c2c(-c3ccc(F)cn3)nn3c2CO[C@](C)(C(F)(F)F)C3)c1F (single isomer, unassigned) [Example 421, (*S)-3-(5-Fluoro-6-methyl-1H-pyrazolo[3,4-b]pyridin-4-yl)-2-(5-fluoropyridin-2-yl)-6-methyl-6-(trifluoromethyl)-6,7-dihydro-4H-pyrazolo[5,1-c][1,4]oxazine]	0.682 µM	0.036 µM
[2H]C([2H])([2H])[C@]1(C(F)(F)F)Cn2nc(-c3ccc(F)cn3)c(-c3ccnc4[nH]ncc34)c2CO1 (single isomer, unassigned) [Example 423, (*R)-2-(5-Fluoropyridin-2-yl)-6-(methyl-d3)-3-(1H-pyrazolo[3,4-b]pyridin-4-yl)-6-(trifluoromethyl)-6,7-dihydro-4H-pyrazolo[5,1-c][1,4]oxazine]	1.57 µM	0.067 µM
